Measured values: ChEMBL document CHEMBL1134554, “Design, synthesis, and structure-activity relationships of macrocyclic hydroxamic acids that inhibit tumor necrosis factor alpha release in vitro and in vivo” (J Med Chem, 2001)

Target: Disintegrin and metalloproteinase domain-containing protein 17 (Homo sapiens, UniProt P78536)
Sequence (P78536 whole entry, the tested form may be a part): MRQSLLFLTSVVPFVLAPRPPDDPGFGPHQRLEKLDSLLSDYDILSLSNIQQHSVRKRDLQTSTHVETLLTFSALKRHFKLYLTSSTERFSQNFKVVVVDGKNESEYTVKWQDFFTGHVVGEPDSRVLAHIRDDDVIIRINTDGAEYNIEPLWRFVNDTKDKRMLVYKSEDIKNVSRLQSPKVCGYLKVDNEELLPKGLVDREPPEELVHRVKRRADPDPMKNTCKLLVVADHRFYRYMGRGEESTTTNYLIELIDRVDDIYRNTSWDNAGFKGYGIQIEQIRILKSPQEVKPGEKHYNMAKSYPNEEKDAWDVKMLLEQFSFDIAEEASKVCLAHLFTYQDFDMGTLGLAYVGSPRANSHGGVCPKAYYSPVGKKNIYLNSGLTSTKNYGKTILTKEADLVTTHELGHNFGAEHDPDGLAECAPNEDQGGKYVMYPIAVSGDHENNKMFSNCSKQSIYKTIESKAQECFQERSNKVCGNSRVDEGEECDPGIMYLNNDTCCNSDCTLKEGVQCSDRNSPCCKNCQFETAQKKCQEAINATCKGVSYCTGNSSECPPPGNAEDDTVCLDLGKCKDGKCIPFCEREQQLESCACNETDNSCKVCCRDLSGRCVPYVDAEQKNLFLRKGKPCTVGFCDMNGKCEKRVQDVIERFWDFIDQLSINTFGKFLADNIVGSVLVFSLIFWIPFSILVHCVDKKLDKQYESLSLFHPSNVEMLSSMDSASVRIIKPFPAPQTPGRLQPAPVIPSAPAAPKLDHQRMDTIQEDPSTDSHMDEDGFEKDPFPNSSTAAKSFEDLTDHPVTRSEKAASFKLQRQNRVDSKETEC
Description: Inhibition of LPS-stimulated TNF-alpha release in human whole blood

IC50 [nM]	Compound
150	CC(C)C[C@H]1C(=O)N[C@H](C(=O)NCC(=O)N2CC(C)OC(C)C2)CCCCNC(=O)OCCC[C@@H]1C(=O)NO (stereo not given in full)
190	CC(C)C[C@H]1C(=O)N[C@H](C(=O)Nc2ccc(N3CCOCC3)cc2)CCCCNC(=O)OCCC[C@@H]1C(=O)NO
130	CCOC(=O)N1CCC(NC(=O)[C@@H]2CCCCNC(=O)OCCC[C@H](C(=O)NO)[C@@H](CC(C)C)C(=O)N2)CC1
130	CC(C)C[C@H]1C(=O)N[C@H](C(=O)NCCc2c[nH]c3ccc(F)cc23)CCCCNC(=O)OCCC[C@@H]1C(=O)NO
2000	CC(C)C[C@H]1C(=O)N[C@H](C(=O)NCC(F)(F)F)CCCCNC(=O)OCCC[C@@H]1C(=O)NO
85	CC(C)C[C@H]1C(=O)N[C@H](C(=O)NCCc2ccccc2O)CCCCNC(=O)OCCC[C@@H]1C(=O)NO
70	CC(C)C[C@H]1C(=O)N[C@H](C(=O)NCC(=O)N2CCN(c3ccccc3)CC2)CCCCNC(=O)OCCC[C@@H]1C(=O)NO
300	Cc1csc(NC(=O)[C@@H]2CCCCN(C)C(=O)OCCC[C@H](C(=O)NO)[C@@H](CC(C)C)C(=O)N2)n1
420	CNC(=O)CNC(=O)[C@@H]1CCCCN(C)C(=O)OCCC[C@H](C(=O)NO)[C@@H](CC(C)C)C(=O)N1
130	CCOC(=O)N1CCN(C(=O)CNC(=O)[C@@H]2CCCCNC(=O)OCCC[C@H](C(=O)NO)[C@@H](CC(C)C)C(=O)N2)CC1
2700	CNC(=O)[C@@H]1CCCCNCCC[C@H](C(=O)NO)[C@@H](CC(C)C)C(=O)N1

The next lines start with the compound.

Compound	IC50 [nM]
CC(C)C[C@H]1C(=O)N[C@H](C(=O)Nc2cccnc2)CCCCN(C)C(=O)OCCC[C@@H]1C(=O)NO	500
CC(C)C[C@H]1C(=O)N[C@H](C(=O)NCC(=O)N2CCCC2)CCCCN(C)C(=O)OCCC[C@@H]1C(=O)NO	400
CC(C)C[C@H]1C(=O)N[C@H](C(=O)NC[C@H]2CCCO2)CCCCNC(=O)OCCC[C@@H]1C(=O)NO	980
CNC(=O)[C@@H](Cc1ccc(OC)cc1)NC(=O)[C@@H]1Cc2ccc(cc2)OCCC[C@H](C(=O)NO)[C@@H](CC(C)C)C(=O)N1	850
CCCCCC[C@H]1C(=O)N[C@H](C(=O)NCC(=O)NC)Cc2ccc(cc2)OCCC[C@@H]1C(=O)NO	550
CNC(=O)[C@@H]1CCCCNC(=O)CO[C@H](C(=O)NO)[C@@H](CC(C)C)C(=O)N1	6500
CNC(=O)[C@H](NC(=O)[C@@H]1Cc2ccc(cc2)OCCC[C@H](C(=O)NO)[C@@H](CC(C)C)C(=O)N1)C(C)C	1510
CC(C)C[C@H]1C(=O)N[C@H](C(=O)NCC(=O)Nc2cccc3c2Cc2ccccc2-3)Cc2ccc(cc2)OCCC[C@@H]1C(=O)NO	930
CC(C)C[C@H]1C(=O)N[C@H](C(=O)Nc2ccncc2)CCCCN(C)C(=O)OCCC[C@@H]1C(=O)NO	500
CC(C)C[C@H]1C(=O)N[C@H](C(=O)NCC(=O)Nc2ccc(F)cc2F)Cc2ccc(cc2)OCCC[C@@H]1C(=O)NO	700
CCOC(=O)N1CCN(C(=O)CNC(=O)[C@@H]2CCCCN(C)C(=O)OCCC[C@H](C(=O)NO)[C@@H](CC(C)C)C(=O)N2)CC1	600
CCCCCC[C@H]1C(=O)N[C@H](C(=O)OC)Cc2ccc(cc2)OCCC[C@@H]1C(=O)NO	> 50000
CC(C)C[C@H]1C(=O)N[C@H](C(=O)NCc2ccccc2)CCCCNC(=O)OCCC[C@@H]1C(=O)NO	740
CC(C)C[C@H]1C(=O)N[C@H](C(=O)Nc2ccccn2)CCCCN(C)C(=O)OCCC[C@@H]1C(=O)NO	200
CC(C)C[C@H]1C(=O)N[C@H](C(=O)NCC(=O)N2CCN(C)CC2)CCCCN(C)C(=O)OCCC[C@@H]1C(=O)NO	120
CC(C)C[C@H]1C(=O)N[C@H](C(=O)NCC(=O)N2CCCC(C)(C)C2)Cc2ccc(cc2)OCCC[C@@H]1C(=O)NO	460
CC(C)C[C@H]1C(=O)N[C@H](C(=O)NCc2ccncc2)CCCCNC(=O)OCCC[C@@H]1C(=O)NO	490
CC(C)C[C@H]1C(=O)N[C@H](C(=O)NCc2ccccn2)CCCCNC(=O)OCCC[C@@H]1C(=O)NO	700
CC(C)C[C@H]1C(=O)N[C@H](C(=O)NCC(=O)Nc2ccccc2)Cc2ccc(cc2)OCCC[C@@H]1C(=O)NO	200
